# Assay results taken from paper PMC8940841, “A metabolically stable PET tracer for imaging synaptic vesicle protein 2A: synthesis and preclinical characterization of [^18F]SDM-16” (European Journal of Nuclear Medicine and Molecular Imaging, 2021).
# Tests used:
# [1] = Brain PET imaging with 1TC kinetic modeling; conditions: rhesus monkey, intravenous; for Kp / half-life: both
# Experimental: (§1) A total of 10 PET imaging experiments with [^18F]SDM-16 were performed in rhesus monkeys (Macaca mulatta) according to a protocol approved by the Yale University Institutional Animal Care and Use Committee (IACUC). Four monkeys were studied. […] Body temperature was maintained by a water-jacket heating pad. The animal was attached to a physiological monitor, and vital signs (heart rate, blood pressure, respirations, SPO2, EKG, ETCO2, and body temperature) were continuously monitored. A venous line was inserted in one limb for administration of radiotracer, displacement, and blocking drugs. A catheter was placed in the femoral artery in the other limb for blood sampling. Dynamic PET brain scans were performed on a Focus 220 system (Siemens Medical Solutions, Knoxville, TN, USA) with a reconstructed image resolution of approximately 1.5 mm. After a 9-min transmission scan, the radioligand was injected i.v. over 3 min. by an infusion pump. Dynamic PET scans were performed for 3 h (baseline and blocking scans) or 4 h (displacement scan).
# (§2) PET images were reconstructed with built-in corrections for attenuation, normalization, scatter, randoms, and deadtime. PET brain images were registered to the animal’s MR image, which was subsequently registered to a brain atlas to define the regions of interest. Dynamic images were reconstructed using a Fourier rebinning and filtered back projection algorithm. A rhesus monkey brain atlas was used for generation of regions of interest (ROIs) and time − activity curves (TACs) for the following ROIs: amygdala, brain stem, caudate nucleus, centrum semiovale (CS), cerebellum, cingulate cortex, frontal cortex, globus pallidus, hippocampus, insula, nucleus accumbens, occipital cortex, pons, putamen, substantia nigra, temporal cortex, and thalamus.
# (§3) Volume of distribution (VT, mL·cm^−3) values and the first-order kinetic rate constants of tracer (K1) were derived through 1-tissue (1T) compartment kinetic modeling with the metabolite-corrected arterial plasma input function, which was calculated as the product of the fitted total plasma curve and the parent radiotracer fraction curve. Nondisplaceable volume of distribution (VND) and SV2A occupancy by LEV was calculated using the Lassen plot [32]. Nondisplaceable binding potential (BPND) values were calculated from VT values using CS as reference region, or the VND derived from the blocking study, i.e., BPND = (VT, ROI − VT, CS)/ VT, CS or BPND = (VT/VND) -1.
# SV2A = assay: Brain PET imaging with 1TC kinetic modeling; conditions: for VT (baseline): 1TC
# Experimental: as §1, §2, §3
# [2] = Radiation dosimetry from whole-body PET biodistribution; type: in vivo, rhesus monkeys; conditions: for maximum permissible single-study dosage: urinary bladder wall critical organ, 21 CFR 361.1
# Experimental: Two whole-body biodistribution studies were performed in two rhesus monkeys (9.4 kg female and 17.0 kg male) to estimate human organ radiation dosimetry. Scans were carried out on a Biograph mCT (hybrid PET/CT, Siemens Medical Systems, Knoxville, TN) scanner following i.v. injections of 187.6 MBq (5.1 mCi) and 173.9 MBq (4.7 mCi) [^18F]SDM-16, and mass doses of 0.27 µg and 0.24 µg at time of injection, respectively. Monkeys were scanned for about 4 h in a sequence of 22–24 passes from top of the head to the mid-thigh. Scans were reconstructed and visually inspected for organ activity concentrations exceeding background level. The organs included were the brain, heart, liver, gall bladder, spleen, kidneys, and urinary bladder contents. Regions of interest were delineated on these organs, and mean activity values were computed to form TACs.
# Within-pass decay correction was removed to reflect the actual activity in each organ, and cumulative activity (Bq^.h/cm^3) computed by integration of the data from the scan. The tail portions beyond the end of the scan were extrapolated assuming only physical decay of the tracer. These values were multiplied by the organ volumes of a standard 55-kg adult female reference and 70-kg adult male mathematical phantom, and then normalized to injected activity to obtain organ residence times (N, h). Final values were then entered into the OLINDA software to obtain absorbed doses in all organs, which were computed with different voiding assumptions.
structure (smiles),measurement,setting,value
"Cc1nccn1CN1C[C@@H](c2cc(F)cc([18F])c2)CC1=O [[^18F]SDM-16, (R)-4-(3-fluoro-5-(fluoro-^18F)phenyl)-1-((2-methyl-1H-imidazol-1-yl)methyl)pyrrolidin-2-one]",Kp,[1]; brain (caudate),21.6 ± 4.9
same,Kp,[1]; brain (centrum semiovale),6.6
same,half-life,[1]; brain (centrum semiovale),1.38 ± 0.3 h
same,Kp,[1]; brain (cerebellum),21.5 ± 3
same,Kp,[1]; brain (cingulate cortex),31.3
same,half-life,[1]; brain (insular cortex),2.53 ± 0.817 h
same,Kp,[1]; brain (putamen),26 ± 6.8
same,Kp,[1]; brain (thalamus),21.6 ± 4.9
same,fraction unbound,[1]; brain tissue,0.27
same,K1,SV2A; Amygdala,0.10 ± 0.02 mL/cm^3 per min
same,VT (baseline),SV2A; Amygdala,11.2 ± 2.0 mL/cm^3
same,K1,SV2A; Anterior cingulate,0.15 ± 0.01 mL/cm^3 per min
same,K1,SV2A; Brainstem,0.14 ± 0.02 mL/cm^3 per min
same,VT (baseline),SV2A; Brainstem,14.1 ± 1.7 mL/cm^3
same,K1,SV2A; Caudate,0.13 ± 0.02 mL/cm^3 per min
same,VT (baseline),SV2A; Centrum semiovale,6.6 ± 0.9 mL/cm^3
same,K1,SV2A; Cerebellum,0.18 ± 0.02 mL/cm^3 per min
same,K1,SV2A; Cingulate cortex,0.15 ± 0.00 mL/cm^3 per min
same,VT (baseline),SV2A; Cingulate cortex,31.3 ± 7.8 mL/cm^3
same,K1,SV2A; Frontal cortex,0.14 ± 0.00 mL/cm^3 per min
same,VT (baseline),SV2A; Frontal cortex,27.9 ± 6.8 mL/cm^3
same,K1,SV2A; Globus pallidus,0.11 ± 0.01 mL/cm^3 per min
same,VT (baseline),SV2A; Globus pallidus,17.2 ± 3.5 mL/cm^3
same,K1,SV2A; Hippocampus,0.12 ± 0.02 mL/cm^3 per min
same,VT (baseline),SV2A; Hippocampus,17.9 ± 2.5 mL/cm^3
same,K1,SV2A; Insular cortex,0.14 ± 0.01 mL/cm^3 per min
same,VT (baseline),SV2A; Insular cortex,29.8 ± 8.0 mL/cm^3
same,K1,SV2A; Mean ± SD over brain regions,0.14 ± 0.03 mL/cm^3 per min
same,K1,SV2A; Nucleus accumbens,0.13 ± 0.01 mL/cm^3 per min
same,VT (baseline),SV2A; Nucleus accumbens,29.4 ± 8.5 mL/cm^3
same,K1,SV2A; Occipital cortex,0.18 ± 0.02 mL/cm^3 per min
same,VT (baseline),SV2A; Occipital cortex,29.5 ± 5.5 mL/cm^3
same,K1,SV2A; Putamen,0.16 ± 0.02 mL/cm^3 per min
same,K1,SV2A; Temporal cortex,0.14 ± 0.01 mL/cm^3 per min
same,VT (baseline),SV2A; Temporal cortex,27.3 ± 5.7 mL/cm^3
same,K1,SV2A; Thalamus,0.14 ± 0.02 mL/cm^3 per min
same,SUV (brain tracer uptake),"SV2A; baseline scan, end of scan, frontal cortex and putamen",about 10
same,averaged VT as percent of that of [^11C]UCB-A,"SV2A; rhesus monkey, in vivo",59%
same,regional K1 lower than [^11C]UCB-J,"SV2A; rhesus monkey, in vivo",82%
same,regional K1 lower than [^18F]SynVesT-1,"SV2A; rhesus monkey, in vivo",86%
same,in vivo defluorination (radioactivity in skull),SV2A; up to 4-h p.i.,lack of in vivo defluorination
same,total ED of a single-study dosage,[2]; 185 MBq (5 mCi),3.9 mSv
same,mean organ radiation dose estimate,"[2]; Adrenals, adult female phantom",0.0157 mGv/MBq
same,mean organ radiation dose estimate,"[2]; Adrenals, adult male phantom",0.0135 mGv/MBq
same,mean organ radiation dose estimate,"[2]; Brain, adult female phantom",0.1032 mGv/MBq
same,mean organ radiation dose estimate,"[2]; Brain, adult male phantom",0.0732 mGv/MBq
same,mean organ radiation dose estimate,"[2]; Breasts, adult female phantom",0.0087 mGv/MBq
same,mean organ radiation dose estimate,"[2]; Breasts, adult male phantom",0.0073 mGv/MBq
same,average residence time N,"[2]; Gall Bladder, Female",0.015 h
same,average residence time N,"[2]; Gall Bladder, Male",0.021 h
same,mean organ radiation dose estimate,"[2]; Gallbladder Wall, adult female phantom",0.0441 mGv/MBq
same,mean organ radiation dose estimate,"[2]; Gallbladder Wall, adult male phantom",0.0484 mGv/MBq
same,mean organ radiation dose estimate,"[2]; Heart Wall, adult female phantom",0.0158 mGv/MBq
same,mean organ radiation dose estimate,"[2]; Heart Wall, adult male phantom",0.0137 mGv/MBq
same,average residence time N,"[2]; Heart, Female",0.015 h
same,average residence time N,"[2]; Heart, Male",0.017 h
same,mean organ radiation dose estimate,"[2]; Kidneys, adult female phantom",0.0454 mGv/MBq
same,mean organ radiation dose estimate,"[2]; Kidneys, adult male phantom",0.0478 mGv/MBq
same,mean organ radiation dose estimate,"[2]; LLI Wall, adult female phantom",0.0145 mGv/MBq
same,mean organ radiation dose estimate,"[2]; LLI Wall, adult male phantom",0.0114 mGv/MBq
same,mean organ radiation dose estimate,"[2]; Liver, adult female phantom",0.0538 mGv/MBq
same,mean organ radiation dose estimate,"[2]; Liver, adult male phantom",0.0454 mGv/MBq
same,mean organ radiation dose estimate,"[2]; Lungs, adult female phantom",0.0116 mGv/MBq
same,mean organ radiation dose estimate,"[2]; Lungs, adult male phantom",0.0096 mGv/MBq
same,mean organ radiation dose estimate,"[2]; Muscle, adult female phantom",0.0110 mGv/MBq
same,mean organ radiation dose estimate,"[2]; Muscle, adult male phantom",0.0093 mGv/MBq
same,mean organ radiation dose estimate,"[2]; Osteogenic Cells, adult female phantom",0.0188 mGv/MBq
same,mean organ radiation dose estimate,"[2]; Osteogenic Cells, adult male phantom",0.0147 mGv/MBq
same,mean organ radiation dose estimate,"[2]; Ovaries, adult female phantom",0.0147 mGv/MBq
same,mean organ radiation dose estimate,"[2]; Pancreas, adult female phantom",0.0154 mGv/MBq
same,mean organ radiation dose estimate,"[2]; Pancreas, adult male phantom",0.0134 mGv/MBq
same,mean organ radiation dose estimate,"[2]; Red Marrow, adult female phantom",0.0120 mGv/MBq
same,mean organ radiation dose estimate,"[2]; Red Marrow, adult male phantom",0.0098 mGv/MBq
same,average residence time N,"[2]; Remainder, Female",1.504 h
same,average residence time N,"[2]; Remainder, Male",1.608 h
same,mean organ radiation dose estimate,"[2]; Skin, adult female phantom",0.0087 mGv/MBq
same,mean organ radiation dose estimate,"[2]; Skin, adult male phantom",0.0073 mGv/MBq
same,mean organ radiation dose estimate,"[2]; Small Intestine, adult female phantom",0.0130 mGv/MBq
same,mean organ radiation dose estimate,"[2]; Small Intestine, adult male phantom",0.0116 mGv/MBq
same,mean organ radiation dose estimate,"[2]; Spleen, adult female phantom",0.0122 mGv/MBq
same,mean organ radiation dose estimate,"[2]; Spleen, adult male phantom",0.0104 mGv/MBq
same,mean organ radiation dose estimate,"[2]; Stomach Wall, adult female phantom",0.0125 mGv/MBq
same,mean organ radiation dose estimate,"[2]; Stomach Wall, adult male phantom",0.0107 mGv/MBq
same,average residence time N,"[2]; Sum, Female",2.621 h
same,average residence time N,"[2]; Sum, Male",2.621 h
same,mean organ radiation dose estimate,"[2]; Testes, adult male phantom",0.0090 mGv/MBq
same,mean organ radiation dose estimate,"[2]; Thymus, adult female phantom",0.0107 mGv/MBq
same,mean organ radiation dose estimate,"[2]; Thymus, adult male phantom",0.0089 mGv/MBq
same,mean organ radiation dose estimate,"[2]; Thyroid, adult female phantom",0.0101 mGv/MBq
same,mean organ radiation dose estimate,"[2]; Thyroid, adult male phantom",0.0098 mGv/MBq
same,mean organ radiation dose estimate,"[2]; Total Body, adult female phantom",0.0146 mGv/MBq
same,mean organ radiation dose estimate,"[2]; Total Body, adult male phantom",0.0119 mGv/MBq
same,mean organ radiation dose estimate,"[2]; ULI Wall, adult female phantom",0.0141 mGv/MBq
same,mean organ radiation dose estimate,"[2]; ULI Wall, adult male phantom",0.0119 mGv/MBq
same,mean organ radiation dose estimate,"[2]; Urinary Bladder Wall, adult female phantom",0.1368 mGv/MBq
same,mean organ radiation dose estimate,"[2]; Urinary Bladder Wall, adult male phantom",0.0762 mGv/MBq
same,average residence time N,"[2]; Urinary Bladder, Female",0.193 h
same,average residence time N,"[2]; Urinary Bladder, Male",0.143 h
same,mean organ radiation dose estimate,"[2]; Uterus, adult female phantom",0.0180 mGv/MBq
same,Effective Dose,[2]; adult female phantom,0.0211 mGv/MBq
same,Effective Dose Equivalent,[2]; adult female phantom,0.0316 mGv/MBq
same,Effective Dose,[2]; adult male phantom,0.0156 mGv/MBq
same,Effective Dose Equivalent,[2]; adult male phantom,0.0246 mGv/MBq
same,absorbed dose,"[2]; brain, female",0.1032 mGy/MBq
same,average residence time N,"[2]; brain, female",0.532 h
same,absorbed dose,"[2]; brain, male",0.0732 mGy/MBq
same,average residence time N,"[2]; brain, male",0.430 h
same,effective dose (ED),[2]; female,21.1 µSv/MBq
same,maximum permissible single-study dosage,[2]; female,365.6 MBq
same,absorbed dose,"[2]; gallbladder wall, female",0.0441 mGy/MBq
same,absorbed dose,"[2]; gallbladder wall, male",0.0484 mGy/MBq
same,absorbed dose,"[2]; kidneys, female",0.0454 mGy/MBq
same,average residence time N,"[2]; kidneys, female",0.057 h
same,absorbed dose,"[2]; kidneys, male",0.0478 mGy/MBq
same,average residence time N,"[2]; kidneys, male",0.067 h
same,absorbed dose,"[2]; liver, female",0.0538 mGy/MBq
same,average residence time N,"[2]; liver, female",0.305 h
same,absorbed dose,"[2]; liver, male",0.0454 mGy/MBq
same,average residence time N,"[2]; liver, male",0.335 h
same,effective dose (ED),[2]; male,15.6 µSv/MBq
same,maximum permissible single-study dosage,[2]; male,656.0 MBq
same,absorbed dose,"[2]; urinary bladder wall, female",0.1368 mGy/MBq
same,absorbed dose,"[2]; urinary bladder wall, male",0.0762 mGy/MBq
